# System: HCV replicon
# Format: cell-based
row,Compound,IC50
1,COc1ccc2c(C#N)c(-c3ccc(NS(=O)(=O)C4CC4)cc3)n(CC3CCCC3)c2c1 [Compound 890],0.5 to 2 µM
2,CCOc1ccc2c(C#N)c(-c3ccc(NS(=O)(=O)C4CC4)cc3)n(C3CCCC3)c2c1 [Compound 1141],0.5 to 2 µM
3,CCn1c(-c2ccc(NC(=O)N3CCCC3)cc2)c(C#N)c2ccc(OC)cc21 [Compound 1089],0.5 to 2 µM
4,CCOc1ccc2c(C#N)c(-c3ccc(NC(=O)OCCF)cc3)n(C3CCC3)c2c1 [Compound 974],< 0.5 µM
5,C=CCNC(=O)Nc1ccc(-c2c(C#N)c3ccc(OC(F)F)cc3n2CC2CC2)cc1 [Compound 1070],0.5 to 2 µM
6,CCCn1c(-c2ccc(NS(=O)(=O)CC)cc2)c(C#N)c2ccc(OCc3ccccc3)cc21 [Compound 922],0.5 to 2 µM
7,CCOc1ccc2c(C#N)c(-c3ccc(NC(=O)NC(C)CC)cc3)n(C3CCC3)c2c1 (stereo not shown) [Compound 1159],< 0.5 µM
8,CCn1c(-c2ccc(N)cc2)c(C#N)c2ccc(OC(F)F)cc21 [Compound 870],0.5 to 2 µM
9,CCCCn1c(-c2ccc(NC(=O)NC(C)C)cc2)c(C#N)c2ccc(OCC)cc21 [Compound 1017],< 0.5 µM
10,CCn1c(-c2ccc(NP(=O)(OC)OC)cc2)c(C#N)c2ccc(OC)cc21 [Compound 944],0.5 to 2 µM
11,CCn1c(-c2cccc(NC(=O)Oc3ccc(OC)cc3)c2)c(C#N)c2ccc(OCCCCl)cc21 [Compound 1028],< 0.5 µM
12,CCOc1ccc2c(C#N)c(-c3ccc(NC(=O)OC4CCCC4)cc3)n(C3CCC3)c2c1 [Compound 1109],< 0.5 µM
13,CCn1c(-c2ccc(NC(=O)OC(C)(C)C)cc2)c(C#N)c2ccc(Br)cc21 [Compound 1048],0.5 to 2 µM
14,CCCn1c(-c2ccc(NS(=O)(=O)CCC)cc2)c(C#N)c2ccc(OCc3ccccc3)cc21 [Compound 923],0.5 to 2 µM
15,CCn1c(-c2ccc(N3CCNC3=O)cc2)c(C#N)c2ccc(OCCCCl)cc21 [Compound 1051],0.5 to 2 µM
16,CCn1c(-c2ccc(N)c(F)c2)c(C#N)c2ccc(OC)cc21 [Compound 880],0.5 to 2 µM

row,Compound,IC50
1,CCOc1ccc2c(C#N)c(-c3ccc(NC(=O)OC(C)C)cc3)n(C3CC3)c2c1 [Compound 1236],< 0.5 µM
2,CCn1c(-c2ccc(NC(=O)C3CC3)cc2)c(C#N)c2ccc(OCCn3cnnc3)cc21 [Compound 1092],0.5 to 2 µM
3,CCCCS(=O)(=O)Nc1ccc(-c2c(C#N)c3ccc(OCCF)cc3n2CC)cc1 [Compound 953],0.5 to 2 µM
4,CCOc1ccc2c(c1)c(C#N)c(-c1ccc(NC(=O)NCCc3ccccc3)cc1)n2C1CCC1 [Compound 1227],< 0.5 µM
5,CCn1c(-c2ccc(N3CCCS3(=O)=O)cc2)c(C#N)c2ccc(NC(=O)OC(C)(C)C)cc21 [Compound 1049],< 0.5 µM
6,CC(C)OC(=O)Nc1ccc(-c2c(C#N)c3ccc(OCc4cccnc4)cc3n2C2CCC2)cc1 [Compound 1218],< 0.5 µM
7,CCn1c(-c2ccc(N3CCCS3(=O)=O)cc2)c(C#N)c2ccc(N)cc21 [Compound 1050],0.5 to 2 µM
8,CCn1c(-c2ccc(NC(=O)C3CC3)cc2)c(C#N)c2ccc(OCCN3CCCC3)cc21 [Compound 1054],0.5 to 2 µM
9,COC(=O)c1ccc2c(C#N)c(-c3ccc(NC(=O)NC(C)C)cc3)n(C3CCC3)c2c1 [Compound 1301],< 0.5 µM
10,Cn1c(-c2ccc(N3CCCS3(=O)=O)cc2)c(C#N)c2ccc(OC(F)(F)F)cc21 [Compound 902],0.5 to 2 µM
11,CC(C)OC(=O)Nc1ccc(-c2c(C#N)c3ccc(OCCN(C)C)cc3n2C2CCC2)cc1 [Compound 1269],< 0.5 µM
12,CCn1c(-c2ccc(NC(=O)C3CC3)cc2)c(C#N)c2ccc(OCCN(C)CCOC)cc21 [Compound 1091],0.5 to 2 µM
13,CCCCNC(=O)Nc1ccc(-c2c(C#N)c3ccc(OC(F)F)cc3n2CC)cc1 [Compound 1138],0.5 to 2 µM
14,C=CCOC(=O)Nc1ccc(-c2c(C#N)c3ccc(OC(F)F)cc3n2CC)cc1 [Compound 1135],< 0.5 µM
15,CCn1c(-c2ccc(NS(=O)(=O)CC)c(C)c2)c(C#N)c2ccc(OC)cc21 [Compound 960],0.5 to 2 µM
